Reference: ChEMBL document CHEMBL3808348, “Rational Design, Synthesis, and Biological Evaluation of 7-Azaindole Derivatives as Potent Focused Multi-Targeted Kinase Inhibitors” (J Med Chem, 2016)

Assays:
[1] = biological target: Tyrosine-protein kinase FRK (Homo sapiens, UniProt P42685); experiment: Inhibition of GST-tagged full length human recombinant FRK expressed in baculovirus using Fluorescein-Poly GT as substrate
[2] = biological target: Tyrosine-protein kinase Lck (Homo sapiens, UniProt P06239); experiment: Inhibition of His-tagged full length human recombinant LCK expressed in baculovirus using Fluorescein-Poly GT as substrate
[3] = biological target: Bcr/Abl fusion protein (Homo sapiens, UniProt P00519, T315I); assay type: cell-based, BaF3
Description: Inhibition of human BCR-ABL T315I mutant expressed in mouse BAF3 cells assessed as inhibition of cell proliferation after 72 hrs by MTT assay

[4] = tested on: NCI-H1975; experiment: Antiproliferative activity against human NCI-H1975 cells harboring EGFR L858R/T790M double mutant after 72 hrs by MTT assay; assay type: functional, cell-based; conditions: NCI-H1975, 72 h
[5] = Cmax in Swiss mouse plasma at 20 mg/kg, po by LC/MS/MS analysis; assay type: ADME, organism-based; parameters: dose 20 mg/kg, route oral
[6] = Tmax in Swiss mouse plasma at 2 mg/kg, iv by LC/MS/MS analysis; assay type: ADME, organism-based
[7] = AUC(0 to infinity) in Swiss mouse plasma at 2 mg/kg, iv by LC/MS/MS analysis; assay type: ADME, organism-based; parameters: dose 2 mg/kg, route intravenous, time infinity
[8] = AUC(0 to infinity) in Swiss mouse plasma at 20 mg/kg, po by LC/MS/MS analysis; assay type: ADME, organism-based; parameters: dose 20 mg/kg, time infinity, route oral
[9] = biological target: Fibroblast growth factor receptor 2 (Homo sapiens) (UniProt P21802); experiment: Inhibition of His-tagged human recombinant FGFR2 (403 to 822 residues) expressed in baculovirus using Fluorescein-Poly GT as substrate at 100 nM
[10] = biological target: T1, Tyrosine-protein kinase ABL1 (Homo sapiens, UniProt P00519); experiment: Inhibition of His-tagged full length human recombinant wild type ABL expressed in baculovirus using Fluorescein-Poly GT as substrate at 100 nM
[11] = tested on: Tyrosine-protein kinase ABL1 (Homo sapiens), P00519 [G250E]; experiment: Inhibition of His-tagged full length human recombinant ABL G250E mutant expressed in baculovirus using Fluorescein-Poly GT as substrate at 100 nM
[12] = biological target: Tyrosine-protein kinase Blk (Homo sapiens) (UniProt P51451); experiment: Inhibition of His-tagged full length human recombinant BLK expressed in baculovirus using Fluorescein-Poly GT as substrate at 100 nM
[13] = biological target: Cytoplasmic tyrosine-protein kinase BMX (Homo sapiens) (UniProt P51813); experiment: Inhibition of His-tagged full length human recombinant BMX expressed in baculovirus using Fluorescein-Poly GT as substrate at 100 nM
[14] = biological target: Tyrosine-protein kinase HCK (Homo sapiens, UniProt P08631); experiment: Inhibition of GST-tagged full length human recombinant HCK expressed in baculovirus using Fluorescein-Poly GT as substrate at 100 nM
[15] = biological target: Tyrosine-protein kinase Lyn (Homo sapiens, UniProt P07948); experiment: Inhibition of GST-tagged full length human recombinant LYNA expressed in baculovirus using Fluorescein-Poly GT as substrate at 100 nM
[16] = tested on: Serine/threonine-protein kinase B-raf (Homo sapiens), P15056 [V600E]; experiment: Inhibition of full length GST-tagged human recombinant BRAF V600E mutant expressed in baculovirus using Fluorescein-MAP2K1 as substrate at 100 nM
[17] = biological target: Epidermal growth factor receptor (Homo sapiens, UniProt P00533); experiment: Inhibition of GST-tagged human recombinant EGFR (668 to1210 residues) expressed in baculovirus using Fluorescein-Poly GT as substrate
[18] = biological target: T1, Tyrosine-protein kinase ABL1; experiment: Inhibition of His-tagged full length human recombinant wild type ABL expressed in baculovirus using Fluorescein-Poly GT as substrate
[19] = biological target: Platelet-derived growth factor receptor alpha (Homo sapiens, UniProt P16234); experiment: Inhibition of full length GST-tagged human recombinant PDGFRalpha expressed in baculovirus using Fluorescein-Poly GT as substrate at 100 nM
[20] = tested on: HT-29; experiment: Antiproliferative activity against human HT-29 cells after 72 hrs by MTT assay; assay type: functional, cell-based; conditions: HT-29, 72 h
[21] = biological target: Leukocyte tyrosine kinase receptor (Homo sapiens) (UniProt P29376); conditions: 100 nM
Description: Inhibition of GST-tagged human recombinant TYK1 (450 to 864 residues) expressed in baculovirus using Fluorescein-Poly GT as substrate at 100 nM

[22] = biological target: Proto-oncogene tyrosine-protein kinase ROS (Homo sapiens) (UniProt P08922); conditions: 100 nM
Description: Inhibition of GST-tagged human recombinant ROS1 (1883 to 2347 residues) expressed in baculovirus using Fluorescein-Poly GT as substrate at 100 nM

[23] = biological target: Tyrosine-protein kinase SYK (Homo sapiens) (UniProt P43405); conditions: 100 nM
Description: Inhibition of GST-tagged full length human recombinant SYK expressed in baculovirus using Fluorescein-Poly GT as substrate at 100 nM

[24] = biological target: Tyrosine-protein kinase receptor TYRO3 (Homo sapiens) (UniProt Q06418); conditions: 100 nM
Description: Inhibition of GST-tagged human recombinant TYRO3 (451 to 890 residues) expressed in baculovirus using Fluorescein-Poly GT as substrate at 100 nM

[25] = biological target: Tyrosine-protein kinase BTK (Homo sapiens) (UniProt Q06187); conditions: 100 nM
Description: Inhibition of His-tagged full length human recombinant BTK expressed in baculovirus using Fluorescein-Poly GT as substrate at 100 nM

[26] = biological target: Tyrosine-protein kinase CSK (Homo sapiens) (UniProt P41240); conditions: 100 nM
Description: Inhibition of His-tagged full length human recombinant CSK expressed in Escherichia coli using Fluorescein-Poly GT as substrate at 100 nM

[27] = biological target: RAC-beta serine/threonine-protein kinase (Homo sapiens) (UniProt P31751); conditions: 100 nM
Description: Inhibition of full length His-tagged human recombinant AKT2 expressed in baculovirus using Fluorescein-Crosstide as substrate at 100 nM

[28] = biological target: Cyclin-dependent kinase 5/CDK5 activator 1 (Homo sapiens) (UniProt Q00535+Q15078); conditions: 100 nM
Description: Inhibition of CDK5/p25 (unknown origin) at 100 nM

[29] = biological target: Aurora kinase A (Homo sapiens) (UniProt O14965); conditions: 100 nM
Description: Inhibition of full length His-tagged human recombinant Aurora A expressed in baculovirus using Fluorescein-CREBtide as substrate at 100 nM

[30] = biological target: Tyrosine-protein kinase receptor UFO (Homo sapiens) (UniProt P30530); conditions: 100 nM
Description: Inhibition of full length His-tagged human recombinant AXL expressed in insect expression system using Fluorescein-Poly GT as substrate at 100 nM

[31] = biological target: Calcium/calmodulin-dependent protein kinase type II subunit delta (Homo sapiens) (UniProt Q13557); conditions: 100 nM
Description: Inhibition of full length His-tagged human recombinant CaMK2 delta expressed in baculovirus using Fluorescein-CREBtide as substrate at 100 nM

[32] = biological target: CDK7/Cyclin H/MNAT1 (Homo sapiens) (UniProt P51946+P50613+P51948); conditions: 100 nM
Description: Inhibition of CDK7/cyclinH/MNAT1 (unknown origin) at 100 nM

[33] = biological target: Fibroblast growth factor receptor 1 (Homo sapiens) (UniProt P11362); conditions: 100 nM
Description: Inhibition of His-tagged human recombinant FGFR1 (308 to 731 residues) expressed in baculovirus using Fluorescein-Poly GT as substrate at 100 nM

[34] = biological target: Tyrosine-protein kinase JAK3 (Homo sapiens) (UniProt P52333); conditions: 100 nM
Description: Inhibition of GST-tagged human recombinant JAK3 (781 to 1124 residues) expressed in baculovirus using GFP-ST AT1 as substrate at 100 nM

[35] = biological target: Dual specificity mitogen-activated protein kinase kinase 1 (Homo sapiens) (UniProt Q02750); conditions: 100 nM
Description: Inhibition of full length His-tagged human recombinant MEK1 expressed in baculovirus expression system at 100 nM

[36] = biological target: MAP kinase-activated protein kinase 2 (Homo sapiens) (UniProt P49137); conditions: 100 nM
Description: Inhibition of His-tagged full length human recombinant MAPKAPK2 expressed in Escherichia coli using Fluorescein-CREBtide as substrate at 100 nM

[37] = biological target: MAP kinase-activated protein kinase 5 (Homo sapiens) (UniProt Q8IW41); conditions: 100 nM
Description: Inhibition of His-tagged full length human recombinant MAPKAPK5 expressed in baculovirus at 100 nM

[38] = biological target: Megakaryocyte-associated tyrosine-protein kinase (Homo sapiens) (UniProt P42679); conditions: 100 nM
Description: Inhibition of His-tagged full length human recombinant MATK expressed in Escherichia coli using Fluorescein-Poly GT as substrate at 100 nM

[39] = biological target: Myosin light chain kinase, smooth muscle (Homo sapiens) (UniProt Q15746); conditions: 100 nM
Description: Inhibition of GST-tagged human recombinant MLCK (1428 to 1771 residues) expressed in baculovirus at 100 nM

[40] = biological target: Phosphatidylinositol 4,5-bisphosphate 3-kinase catalytic subunit alpha isoform (Homo sapiens) (UniProt P42336); conditions: 100 nM
Description: Inhibition of PI3Kalpha (unknown origin) at 100 nM

Tyrosine-protein kinase JAK3 (Homo sapiens), sequence (P52333 whole entry): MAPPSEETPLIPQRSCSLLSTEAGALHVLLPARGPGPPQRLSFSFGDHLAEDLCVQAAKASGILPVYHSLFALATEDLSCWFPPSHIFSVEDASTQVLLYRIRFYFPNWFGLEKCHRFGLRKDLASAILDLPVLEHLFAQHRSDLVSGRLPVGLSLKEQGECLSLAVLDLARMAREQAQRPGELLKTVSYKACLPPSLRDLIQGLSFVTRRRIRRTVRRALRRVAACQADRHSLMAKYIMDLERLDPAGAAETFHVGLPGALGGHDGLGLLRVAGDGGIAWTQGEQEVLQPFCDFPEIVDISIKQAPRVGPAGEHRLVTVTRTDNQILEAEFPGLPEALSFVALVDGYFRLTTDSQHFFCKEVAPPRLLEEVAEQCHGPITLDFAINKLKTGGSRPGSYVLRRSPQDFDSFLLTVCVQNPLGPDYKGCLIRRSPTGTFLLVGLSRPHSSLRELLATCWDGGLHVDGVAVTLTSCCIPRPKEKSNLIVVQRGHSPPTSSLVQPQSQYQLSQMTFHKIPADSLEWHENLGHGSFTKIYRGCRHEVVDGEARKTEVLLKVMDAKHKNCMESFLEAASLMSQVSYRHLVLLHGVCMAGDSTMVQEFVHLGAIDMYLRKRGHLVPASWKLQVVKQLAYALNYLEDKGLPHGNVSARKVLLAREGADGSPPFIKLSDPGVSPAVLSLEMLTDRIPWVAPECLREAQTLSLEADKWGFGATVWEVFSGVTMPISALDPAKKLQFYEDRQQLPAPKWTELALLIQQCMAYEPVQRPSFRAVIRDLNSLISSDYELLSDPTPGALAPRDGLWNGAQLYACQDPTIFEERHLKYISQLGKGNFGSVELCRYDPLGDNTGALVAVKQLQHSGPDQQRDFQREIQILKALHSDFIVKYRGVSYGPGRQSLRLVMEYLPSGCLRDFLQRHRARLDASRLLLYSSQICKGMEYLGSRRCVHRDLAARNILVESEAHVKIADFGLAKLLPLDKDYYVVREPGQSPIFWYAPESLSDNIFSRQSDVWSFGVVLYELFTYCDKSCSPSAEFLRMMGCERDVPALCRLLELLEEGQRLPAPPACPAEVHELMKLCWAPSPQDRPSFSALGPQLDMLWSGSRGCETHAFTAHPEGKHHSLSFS
Megakaryocyte-associated tyrosine-protein kinase (Homo sapiens), sequence (P42679 whole entry): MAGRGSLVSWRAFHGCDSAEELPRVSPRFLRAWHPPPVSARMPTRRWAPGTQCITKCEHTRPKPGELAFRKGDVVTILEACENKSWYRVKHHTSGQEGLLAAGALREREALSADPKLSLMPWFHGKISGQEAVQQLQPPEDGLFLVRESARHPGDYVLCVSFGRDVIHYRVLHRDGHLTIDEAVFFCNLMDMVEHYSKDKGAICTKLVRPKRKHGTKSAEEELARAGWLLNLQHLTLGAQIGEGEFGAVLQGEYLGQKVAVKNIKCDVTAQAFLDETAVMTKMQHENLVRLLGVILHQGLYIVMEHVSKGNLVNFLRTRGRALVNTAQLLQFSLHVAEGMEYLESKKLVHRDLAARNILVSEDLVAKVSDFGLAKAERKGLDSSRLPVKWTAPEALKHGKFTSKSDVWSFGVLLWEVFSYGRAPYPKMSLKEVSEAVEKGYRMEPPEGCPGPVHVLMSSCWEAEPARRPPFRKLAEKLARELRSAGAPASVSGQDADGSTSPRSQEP
MAP kinase-activated protein kinase 5 (Homo sapiens), sequence (Q8IW41 whole entry): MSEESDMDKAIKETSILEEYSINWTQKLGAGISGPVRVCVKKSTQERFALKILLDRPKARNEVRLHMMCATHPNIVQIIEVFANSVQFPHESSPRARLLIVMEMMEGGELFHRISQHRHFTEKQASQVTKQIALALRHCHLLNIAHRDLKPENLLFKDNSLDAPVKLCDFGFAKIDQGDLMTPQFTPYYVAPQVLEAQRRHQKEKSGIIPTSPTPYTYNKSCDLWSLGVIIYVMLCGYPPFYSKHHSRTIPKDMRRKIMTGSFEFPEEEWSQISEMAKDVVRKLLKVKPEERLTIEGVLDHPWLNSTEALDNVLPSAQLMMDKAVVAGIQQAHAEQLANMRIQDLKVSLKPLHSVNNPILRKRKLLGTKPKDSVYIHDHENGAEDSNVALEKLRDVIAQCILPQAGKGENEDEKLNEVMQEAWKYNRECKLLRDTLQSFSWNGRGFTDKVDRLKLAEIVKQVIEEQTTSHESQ
Epidermal growth factor receptor, sequence (P00533 whole entry, the tested form may be a part): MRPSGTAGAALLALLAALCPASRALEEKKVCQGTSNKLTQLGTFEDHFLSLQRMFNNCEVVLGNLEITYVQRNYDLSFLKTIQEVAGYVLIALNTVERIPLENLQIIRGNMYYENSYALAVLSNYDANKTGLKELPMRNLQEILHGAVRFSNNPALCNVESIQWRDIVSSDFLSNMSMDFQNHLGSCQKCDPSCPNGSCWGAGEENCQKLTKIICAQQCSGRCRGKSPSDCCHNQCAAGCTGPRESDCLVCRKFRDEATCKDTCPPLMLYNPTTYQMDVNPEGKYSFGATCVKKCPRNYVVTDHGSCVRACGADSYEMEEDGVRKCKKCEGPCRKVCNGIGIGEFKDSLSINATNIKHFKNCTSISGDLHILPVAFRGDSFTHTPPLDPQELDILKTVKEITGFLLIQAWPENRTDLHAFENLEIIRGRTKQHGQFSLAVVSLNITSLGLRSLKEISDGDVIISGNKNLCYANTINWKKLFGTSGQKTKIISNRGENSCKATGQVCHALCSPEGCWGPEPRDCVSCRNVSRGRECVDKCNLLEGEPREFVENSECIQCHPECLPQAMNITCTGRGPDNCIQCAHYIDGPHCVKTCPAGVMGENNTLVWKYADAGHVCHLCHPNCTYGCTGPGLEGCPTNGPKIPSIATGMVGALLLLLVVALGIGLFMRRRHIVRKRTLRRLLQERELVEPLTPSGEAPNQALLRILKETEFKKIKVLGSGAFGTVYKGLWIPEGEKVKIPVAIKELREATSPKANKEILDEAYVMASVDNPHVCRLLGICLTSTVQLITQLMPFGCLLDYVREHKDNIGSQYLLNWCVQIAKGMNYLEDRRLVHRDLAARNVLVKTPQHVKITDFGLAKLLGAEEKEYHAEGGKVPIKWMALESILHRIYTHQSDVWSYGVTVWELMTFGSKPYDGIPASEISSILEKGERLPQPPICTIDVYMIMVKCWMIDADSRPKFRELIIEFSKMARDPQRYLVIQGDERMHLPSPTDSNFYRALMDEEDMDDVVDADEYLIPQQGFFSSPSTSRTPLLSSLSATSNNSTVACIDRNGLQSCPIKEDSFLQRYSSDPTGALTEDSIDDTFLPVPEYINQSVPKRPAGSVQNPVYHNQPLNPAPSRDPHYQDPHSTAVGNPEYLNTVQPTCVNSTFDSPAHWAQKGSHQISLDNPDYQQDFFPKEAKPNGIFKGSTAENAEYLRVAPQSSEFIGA
Tyrosine-protein kinase Blk (Homo sapiens), sequence (P51451 2-505 limits assumed): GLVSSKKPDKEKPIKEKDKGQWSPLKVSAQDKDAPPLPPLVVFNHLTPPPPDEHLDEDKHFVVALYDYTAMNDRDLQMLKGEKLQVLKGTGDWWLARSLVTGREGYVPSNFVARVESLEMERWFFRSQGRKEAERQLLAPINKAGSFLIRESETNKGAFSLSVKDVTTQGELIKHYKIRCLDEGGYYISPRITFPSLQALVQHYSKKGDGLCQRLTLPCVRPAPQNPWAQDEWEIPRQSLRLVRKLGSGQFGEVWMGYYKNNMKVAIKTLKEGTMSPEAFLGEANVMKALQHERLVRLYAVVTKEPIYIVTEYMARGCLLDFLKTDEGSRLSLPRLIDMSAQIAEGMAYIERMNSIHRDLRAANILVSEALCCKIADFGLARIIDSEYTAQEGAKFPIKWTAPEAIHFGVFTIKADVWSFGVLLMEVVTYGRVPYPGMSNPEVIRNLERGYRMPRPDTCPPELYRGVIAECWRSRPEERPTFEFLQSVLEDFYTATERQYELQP
Fibroblast growth factor receptor 1 (Homo sapiens), sequence (P11362 22-822 limits assumed): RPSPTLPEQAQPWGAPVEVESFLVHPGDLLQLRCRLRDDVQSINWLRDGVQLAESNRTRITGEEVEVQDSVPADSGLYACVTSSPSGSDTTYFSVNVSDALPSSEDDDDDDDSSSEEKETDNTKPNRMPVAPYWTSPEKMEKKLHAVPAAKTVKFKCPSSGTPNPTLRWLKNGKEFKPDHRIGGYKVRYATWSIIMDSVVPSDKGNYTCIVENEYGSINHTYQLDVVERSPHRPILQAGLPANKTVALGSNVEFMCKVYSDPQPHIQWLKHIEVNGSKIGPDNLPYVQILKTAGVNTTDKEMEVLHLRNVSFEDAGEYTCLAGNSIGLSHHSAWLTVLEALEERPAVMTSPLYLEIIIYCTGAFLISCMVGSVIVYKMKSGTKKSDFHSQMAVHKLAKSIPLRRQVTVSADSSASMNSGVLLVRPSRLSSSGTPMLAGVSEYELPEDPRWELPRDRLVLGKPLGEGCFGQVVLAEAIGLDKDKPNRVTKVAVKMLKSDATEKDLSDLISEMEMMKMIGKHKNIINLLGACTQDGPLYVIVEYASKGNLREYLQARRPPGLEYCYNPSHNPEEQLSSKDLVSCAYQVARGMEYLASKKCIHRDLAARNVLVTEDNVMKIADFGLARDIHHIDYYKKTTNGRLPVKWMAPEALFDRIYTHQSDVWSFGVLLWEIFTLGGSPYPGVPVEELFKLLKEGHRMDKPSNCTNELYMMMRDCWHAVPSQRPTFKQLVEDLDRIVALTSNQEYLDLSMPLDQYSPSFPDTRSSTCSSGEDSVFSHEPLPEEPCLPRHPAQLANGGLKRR
Tyrosine-protein kinase CSK (Homo sapiens), sequence (P41240 2-450 limits assumed): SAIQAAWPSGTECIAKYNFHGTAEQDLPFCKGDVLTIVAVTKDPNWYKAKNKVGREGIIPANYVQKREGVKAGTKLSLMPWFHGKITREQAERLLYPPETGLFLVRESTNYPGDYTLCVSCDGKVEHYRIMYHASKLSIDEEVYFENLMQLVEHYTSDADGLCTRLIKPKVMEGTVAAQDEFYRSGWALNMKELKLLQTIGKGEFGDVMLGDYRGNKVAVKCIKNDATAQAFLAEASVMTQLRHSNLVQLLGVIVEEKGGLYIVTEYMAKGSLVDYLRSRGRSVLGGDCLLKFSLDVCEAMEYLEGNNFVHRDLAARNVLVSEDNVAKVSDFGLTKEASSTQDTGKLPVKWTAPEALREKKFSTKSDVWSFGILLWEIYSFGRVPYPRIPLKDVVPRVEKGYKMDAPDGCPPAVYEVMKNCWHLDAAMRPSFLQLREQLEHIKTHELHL

**Q.** With `COC(=O)c1cc2cc(NCc3cc(NC(=O)c4cc(-n5cnc(C)c5)cc(C(F)(F)F)c4)ccc3C)cnc2[nH]1` as the molecule, how does the IC50 [1] read?
**A.** 0.062 µM

**Q.** And the IC50 [2]?
**A.** 0.069 µM

**Q.** And the EC50 [3]?
**A.** 0.0018 µM

**Q.** What about the EC50 [4] of the same molecule?
**A.** 0.104 µM

**Q.** What about the Cmax [5] of the same molecule?
**A.** 610 ng/mL

**Q.** And the Tmax [6]?
**A.** 10 min

**Q.** What about the AUC(0-inf) [7] of the same molecule?
**A.** 558 ng·h/mL

**Q.** And the AUC(0-inf) [8]?
**A.** 3030 ng·h/mL

**Q.** And the inhibition [9]?
**A.** 52%

**Q.** What about the inhibition [10] of the same molecule?
**A.** > 80%

**Q.** What about the inhibition [11] of the same molecule?
**A.** > 80%

**Q.** What about the inhibition [12] of the same molecule?
**A.** > 80%

**Q.** What about the inhibition [13] of the same molecule?
**A.** > 80%

**Q.** And the inhibition [14]?
**A.** > 80%

**Q.** And the inhibition [15]?
**A.** > 80%

**Q.** What about the inhibition [16] of the same molecule?
**A.** > 80%

**Q.** And the IC50 [17]?
**A.** 0.015 µM

**Q.** What about the IC50 [18] of the same molecule?
**A.** 0.006 µM

**Q.** What about the inhibition [19] of the same molecule?
**A.** 68%

**Q.** And the EC50 [20]?
**A.** 0.037 µM

**Q.** And the inhibition [21]?
**A.** < 40%

**Q.** And the inhibition [22]?
**A.** < 40%

**Q.** And the inhibition [23]?
**A.** < 40%

**Q.** And the inhibition [24]?
**A.** < 40%

**Q.** What about the inhibition [25] of the same molecule?
**A.** < 40%

**Q.** And the inhibition [26]?
**A.** < 40%

**Q.** And the inhibition [27]?
**A.** < 40%

**Q.** And the inhibition [28]?
**A.** < 40%

**Q.** And the inhibition [29]?
**A.** < 40%

**Q.** What about the inhibition [30] of the same molecule?
**A.** < 40%

**Q.** And the inhibition [31]?
**A.** < 40%

**Q.** And the inhibition [32]?
**A.** < 40%

**Q.** What about the inhibition [33] of the same molecule?
**A.** < 40%

**Q.** What about the inhibition [34] of the same molecule?
**A.** < 40%

**Q.** What about the inhibition [35] of the same molecule?
**A.** < 40%

**Q.** And the inhibition [36]?
**A.** < 40%

**Q.** And the inhibition [37]?
**A.** < 40%

**Q.** What about the inhibition [38] of the same molecule?
**A.** < 40%

**Q.** What about the inhibition [39] of the same molecule?
**A.** < 40%

**Q.** What about the inhibition [40] of the same molecule?
**A.** < 40%
